Measured values taken from patent publication US12709734B2, “Human polarised three-dimensional cellular aggregates” (CAMBRIDGE ENTERPRISE LIMITED, priority 2018, dated 2026).
“Also recorded” adds a separate entry of the source.

Assays:
[1] = system: HYS01030 human induced pluripotent stem cell (iPSC) line; test: Gastruloid formation from human induced pluripotent stem cells; assay type: cell-based; settings: 3.5 uM Chiron 1 day before aggregation, aggregated in Chiron and ROCK inhibitor
Source text: FIG. 8: Human gastruloids made from induced pluripotent stem cells. […] 6 representative examples are show. […] There is also some sign of a rosette-like or lumenised structure that expresses SOX2 in the posterior tip (arrowhead). 3 representative examples are shown.
We used a wild type hESC line (mSHEF7; REF) as well as two transgenic lines, the H9TV BRACHYURY-Venus reporter (Mendjan et al., 2014) and RUES2-GLR, the triple reporter for germ layer markers with BRACHYURY-H2B-mCerulean, SOX17-H2B-tdTomato and SOX2-mCitrine (Simunovic et al., 2018). We also used a human induced pluripotent stem cell line, known as HYS01030 (unpublished).

[2] = system: RUES2-GLR human gastruloids; test: Human gastruloid formation: elongation and germ layer reporter patterning after pre-treatment; assay type: cell-based; settings: for elongation / BRA expression of gastruloids: 24 h pre-treatment of RUES2-GLR cells in Nutristem with the named factor (Wnt3a 100 ng/ml or BMP4 50 ng/ml instead of Chiron); for SOX2 expression domain / SOX17 expression: Chiron + 10 μM SB431542 24 h pre-treatment vs Chiron only, RUES2-GLR reporter
Protocol: (§1) Before aggregation, hESCs cultured in 6-well plates were typically pretreated with 3-3.5 μM CHIR99021 (Chiron) in Nutristem for 24 h, unless otherwise stated.
For signal modulation experiments, RUES2-GLR cells were pre-treated for 1 day in Nutristem supplemented with 100 ng/ml recombinant human Wnt3a (5036-WN-010) or 50 ng/ml BMP4 (314-BP), and aggregated in E6 and ROCK inhibitor with additional supplementation as shown. Subsequent media changes were performed daily with E6 alone. To test the effect of signal modulation on gastruloid formation, RUES2-GLR cells were pre-treated in Nutristem supplemented with 3.25 μM Chiron and one of 1 μM LDN193189 (04-0074), 1 μM XAV-939 (04-0046), or 10 μM SB431542 (1614) before aggregation in E6 with 0.5 μM Chiron and ROCK inhibitor, unless otherwise stated. Subsequent media changes were performed daily with E6 alone.
An alternative, ‘dorsalised’ protocol used 3 μM Chiron, supplemented with 10 μM SB431542 Nodal inhibitor (SB431542) also in Nutristem for 24 h.
After pre-treatment, hESCs at 60-85% confluency were washed twice with PBS−/−. For detachment, 2 ml 0.5 mM EDTA in PBS−/− was applied per well and cells were incubated at 37° C., 5% CO2 for 6.5 min. The plate was then carefully tapped against a solid object to promote detachment and the suspension was pipetted up and down repeatedly (5-10−) with a P1000 to break remaining clumps into single cells.
The suspension was then transferred into a 15 ml centrifuge tube with 8 ml PBS−/− and centrifuged for 3-5 min at 1000 rpm. The supernatant was removed, cells were washed with PBS−/− and spun down again 3-5 min at 1000 rpm. Subsequently, depending on the pellet size, cells were resuspended in 500 μl to 2 ml Essential 6 (E6) medium (Gibco, life technologies) and counted using an automated cell counter (MoxiZ, Orflo). Optimal cell density should be around 1×10^6/ml. The specific number of cells optimized per cell line (400/well for RUES2-TR, 500/well for mSHEF7 and H9TV lines) were then added to E6 supplemented with 5 μM Rock Inhibitor and 3 μM Chiron. Using a multichannel pipette, cells in this suspension were plated in 40 μl per well of an ultra-low adhesion, round bottom 96-well plate (Costar, Corning Inc.). At 24 h after aggregation, 150 μl E6 were added into each well using a multichannel pipette. E6 (see Chen et al., 2011) was continuously exchanged every subsequent day by removing 150 μl per well and adding the same amount.
Human gastruloids made using the RUES2-GLR reporter line were specifically analysed for dynamic reporter expression. An in-house MATLAB script was developed to assess the dynamic fluorescent marker expression along the AP axis of human gastruloids. Widefield images of gastruloids were taken at 24 h, 48 h and 72 h and aligned along their anteroposterior axis with reference to fluorescent reporter expression. For each sample, a binary image was generated in the brightfield channel and used as a mask for all fluorescent channels and the major (length) axis was identified. Consequently, for every pixel along the length axis, the sum of intensity values of the respective channel along the width of the aggregate was divided by the width of the gastruloid at that specific point, yielding the normalized fluorescence intensity along the length of the sample. This process was then repeated for every acquired fluorescent channel. Gastruloids used for this analysis were a full set from one experimental batch, and images were only excluded from the analysis when anteroposterior alignment or binarization were unsuccessful.
In order to quantify the degree of elongation of human gastruloids, brightfield channel widefield images were imported into Fiji (Schindelin et al., 2012). The length of the longest axis was measured using the line tool, followed by the length of the perpendicular axis at the mid-point of the longest axis line. […]

[3] = system: hESCs (RUES2-GLR, MasterShef7); test: Effect of Chiron pre-treatment on adherent hESCs (RT-qPCR, immunostaining); assay type: cell-based, human
Protocol: We pre-treated hESCs for 1 day in pluripotency medium supplemented with 3-3.5 μM of the Wnt signalling agonist, CHIR99021 (hereafter referred to as Chiron) before aggregation; effectively shifting the Chiron pulse to before the aggregation rather than 48 h after aggregation as is the case in mouse gastruloids (Baillie-Johnson, P., et al., 2015).
as §1
Adherent cell staining was done using 1:200 Mouse anti-CDH2 (BD Biosciences, BD10920), 1:200 Rat anti-CDH1 (Takara, M108) and 1:200 Rabbit anti-BRACHYURY (AbCam, ab209665) primary antibodies. Quantification was performed using Fiji software on the whole image (histograms) or using a line ROI through the colony (line graph).
Gene expression was analysed from adherent cells using Trizol (Ambion LifeTechnologies) according to manufacturer's instructions. Total RNA was quantified using a NanoDrop 2000C (ThermoScientific) and 5 μg was added to a reverse transcription reaction with Superscript III (Invitrogen) according to manufacturer's instructions. Resultant cDNA was quantified by qPCR with SYBRGreen (Merck) using a liquid handling robot (Qiagility, Qiagen) and analysed on a RotorGeneQ thermocycler (Qiagen). Primer sequences can be found in Supplementary Table 1. Concentration of cDNA was estimated using an in-house MAK2 analysis method.

[4] = system: RUES2-GLR human gastruloids; test: Tomo-sequencing of Chiron vs Chiron+SB431542 pre-treated human gastruloids; assay type: cell-based
Protocol: An alternative, ‘dorsalised’ protocol used 3 μM Chiron, supplemented with 10 μM SB431542 Nodal inhibitor (SB431542) also in Nutristem for 24 h. Tomo-sequencing was performed and analysed in an updated version of published methods (Junker et al., 2014; and Kruse et al., 2016). In short, gastruloids were sectioned along their AP axis, and the mRNA-content of each section was extracted using SORT-seq (Muraro et al., 2016). Paired end (75 bp) sequencing was performed on the resulting RNA-seq libraries using the Illumina Next-Seq sequencing platform. Read 1 contains the cell or section barcode and the unique molecular identifier (UMI). Read 2 contains the biological information. Reads 2 with a valid cell/section barcode were selected and mapped using STAR-2.5.3a with default parameters to the human GRCh38 genome (ENSEMBL version 93), and only reads mapping to gene bodies (exons or introns) were used for downstream analysis. Reads mapping simultaneously to an exon and to an intron were assigned to the exon. Mappabilities for the different samples range between 44% and 47%. For each cell or section, the number of transcripts was obtained as previously described […]. We refer to transcripts as unique molecules based on UMI correction. […] In each gastruloid, data was then normalized to the median number of unique transcripts per slice, and the z-score of each gene was extracted along sections. The reproducibility of AP expression pattern between different gastruloid replicates was scored for each gene using a random background model to calculate the Pearson correlation coefficient p-value. The p-value threshold to select reproducible genes was set at 0.001. […] Differential gene expression was performed by normalizing the transcripts in each section to 100,000 for all gastruloids; then pooling all sections of each gastruloid together; and finally assessing significant differentially expressed genes based on total expression using the Binomial test. An alternative, ‘dorsalised’ protocol used 3.25 μM Chiron, supplemented with 10 μM SB431542 Nodal inhibitor (SB431542) also in Nutristem for 24 h. They were then aggregated in E6 with 3 μM Chiron and ROCK inhibitor.

[5] = 120 h Chi+SB43 vs 72 h Chiron pre-treated gastruloids
[6] = Chi+SB43 vs Chi pre-treated gastruloids
[7] = Chiron + SB431542 pre-treated vs Chiron pre-treated gastruloids
[8] = of genes reproducible in either or both conditions, Chi+SB43 vs Chi

Cc1c[nH]c(-c2cnc(NCCNc3ccc(C#N)cn3)nc2-c2ccc(Cl)cc2Cl)n1 [Chiron, CHIR99021]
morphology of iPSC-derived aggregates [1]: polarised in their morphology at 72 hours
elongation / BRA expression of gastruloids [2]: strictly dependent on the Chiron pre-treatment
aggregates displaying an elongated morphology ([2]; 72 h after aggregation, Chiron pre-treated RUES2-GLR, average of experiments): ~ 66%
expression of NANOG ([3]; 24 h Chiron pre-treatment vs Nutristem alone, RT-qPCR, RUES2-GLR): increased expression
expression and membrane localisation of CDH1 (E-cadherin) / CDH2 (N-cadherin) ([3]; 24 h Chiron pre-treatment vs Nutristem, immunostaining of adherent colonies): switch in the expression and membrane localisation of CDH1 (E-cadherin) towards CDH2 (N-cadherin; also recorded: increase in the expression of membrane localised CDH2 (N-cadherin)
expression of mesendodermal marker genes (BRA, MIXL1, LEFTY1, LEFTY2, AXIN2, EOMES, CDX1) ([3]; 1 day Chiron pre-treatment vs pluripotency medium alone, RT-qPCR): increased expression
expression of pluripotency markers (POU5F1, SOX2) ([3]; 1 day pre-treatment with 3-3.5 μM Chiron vs pluripotency medium (Nutristem) alone, RT-qPCR): levels equivalent to cells maintained in pluripotency medium alone; also recorded: levels comparable to cells maintained in pluripotency medium alone
levels of SOX2 ([3]; 1 day pre-treatment with 3-3.5 μM Chiron vs pluripotency medium alone, RT-qPCR): slightly reduced

NC(=O)c1ccc(-c2nc(-c3ccc4c(c3)OCO4)c(-c3ccccn3)[nH]2)cc1 [SB431542]
BRA expression pattern ([2]; Chiron + 10 μM SB431542 24 h pre-treatment): diffuse expression of BRA that approximated a gradient from anterior to posterior
SOX2 expression domain [2]: distinctly larger domains of SOX2 expression
SOX17 expression [2]: fewer, if any, SOX17 expressing cells
SOX2 expression domain ([2]; listed as SB43): larger, well-defined SOX2 domain at their posterior end
SOX17 expression ([2]; listed as SB43): absence of detectable SOX17 expression
elongation and polarisation of gene expression ([2]; Chiron + 10 μM SB431542 24 h pre-treatment, compared to original method): able to elongate and polarise their gene expression
genes reproducibly localised in both conditions [4, 5]: 301 genes
genes with loss of reproducible localisation [4, 5]: 509 genes
genes with novel spatial localisation acquired [4, 5]: 944 genes
expression of HOX genes (HOXC9, HOXA9, HOXC6) and SOX2 [4, 6]: up-regulation
expression of Nodal signalling components and targets [4, 6]: down-regulation
expression of cardiac development genes (TBX5, GATA6, LBX1, NKX2.5) [4, 6]: loss of many genes
expression of definitive endoderm genes (SHH, LHX1, CER1, FOXA3, SORCS2, FOXA2) [4, 6]: decrease in expression
domain-size and level of expression of SOX2 and SOX3 [4, 7]: increase in the domain-size and level of expression
expression of BRA, CYP26A1 and WNT3A in the posterior domain [4, 7]: comparable to the Chiron pre-treated human gastruloids
expression of FOXA2 [4, 7]: very little expression
expression of Node-like markers NODAL, NOTO, PITX2, DAND5 [4, 7]: no detectable expression
expression of asymmetry markers LEFTY1, LEFTY2 and anterior cardiac mesoderm markers GATA4, GATA6, HAND2 [4, 7]: little or no expression
localisation of somitogenesis-like genes (MEOX, TCF15) ([4]; Chiron + SB431542 pre-treated vs Chiron pre-treated gastruloids (central region)): become anteriorly localised
genes differentially expressed between the two treatments [4, 8]: 564 genes
proportion of genes differentially expressed between the two treatments [4, 8]: 33%

B1: BMP4: BMP4 protein used for pre-treatment, 50 ng/ml (protein, UniProt P12644 293-408, looked up)
Bone morphogenetic protein 4: SPKHHSQRARKKNKNCRRHSLYVDFSDVGWNDWIVAPPGYQAFYCHGDCPFPLADHLNSTNHAIVQTLVNSVNSSIPKACCVPTELSAISMLYLDEYDKVVLKNYQEMVVEGCGCR
elongation / BRA expression of gastruloids [2]: insufficient to promote elongation or BRA expression

B2: Wnt3a: recombinant human Wnt3a (protein, UniProt P56704 19-352, looked up)
Protein Wnt-3a: SYPIWWSLAVGPQYSSLGSQPILCASIPGLVPKQLRFCRNYVEIMPSVAEGIKIGIQECQHQFRGRRWNCTTVHDSLAIFGPVLDKATRESAFVHAIASAGVAFAVTRSCAEGTAAICGCSSRHQGSPGKGWKWGGCSEDIEFGGMVSREFADARENRPDARSAMNRHNNEAGRQAIASHMHLKCKCHGLSGSCEVKTCWWSQPDFRAIGDFLKDKYDSASEMVVEKHRESRGWVETLRPRYTYFKVPTERDLVYYEASPNFCEPNPETGSFGTRDRTCNVSSHGIDGCDLLCCGRGHNARAERRREKCRCVFHWCCYVSCQECTRVYDVHTCK
elongation / BRA expression of gastruloids [2]: insufficient to promote elongation or BRA expression
